{"source": "patent US10440947B2", "about": "“Aqueous solution for preserving an organ and uses during hypothermic ischemia” (UNIVERSITE CLAUDE BERNARD LYON I, priority 2013, dated 2019)", "key": {"isolated whole rat heart [1]": {"test_system": "isolated whole rat heart", "assay": "Functional recovery (LVDevP×HR) of perfused isolated rat heart (Langendorff mode) after cold ischemia-reperfusion", "details": "1 μM in Celsior solution; 8 h cold ischemia at 4° C. + 1 h reperfusion at 37° C.; p<0.01", "description": "The rats were anesthetized by intraperitoneal injection of sodium pentobarbital (50 milligrams per kilogram (mg/kg)). They were then placed in dorsal decubitus. After isolating the femoral vein, heparin was administered intravenously (200 IU/kg). An abdominal incision was made, followed by a thoracic incision. The sternum was pulled towards the rat's head, using a clamp, and the diaphragm was dissected. The heart isolated from its pericardium was excised and stopped in the hypothermic Celsior solution. […] The hearts were then placed at 4° C. in the same solution for 8 h (the cold ischemia stage), prior to reperfusion (the reanimation stage).\nAfter 8 h of cold ischemia, each heart was fastened by its aorta to a cannula for continuous retrograde perfusion using Krebs Henseleit (KH, having the following composition in mM: glucose 11.0; NaCl 118.5: KCl 4.75; MgSO4 1.19, KH2PO4 1.2; NaHCO3 24.0; CaCl2 1.4). A constant pressure of 100 centimeters (cm) of H2O (corresponding to 74 millimeters of mercury (mmHg)) was imposed. The KH solution was bubbled continuously with 95% O2+5% CO2, in order to maintain its pH at 7.4.\nA latex balloon was installed in the left ventricle and connected to a pressure sensor previously calibrated by internal calibration (0 to 200 mmHg). At the beginning of reperfusion, the balloon was inflated in order to obtain a telediastolic pressure of about 5 mmHg. […]"}, "isolated whole rat heart [2]": {"test_system": "isolated whole rat heart", "assay": "Myocardial necrosis (size of infarctus, TTC dye) of isolated rat heart after cold ischemia-reperfusion", "details": "1 μM in Celsior solution, 8 h cold ischemia at 4° C. then reperfusion", "description": "The rats were anesthetized by intraperitoneal injection of sodium pentobarbital (50 milligrams per kilogram (mg/kg)). They were then placed in dorsal decubitus. After isolating the femoral vein, heparin was administered intravenously (200 IU/kg). An abdominal incision was made, followed by a thoracic incision. The sternum was pulled towards the rat's head, using a clamp, and the diaphragm was dissected. The heart isolated from its pericardium was excised and stopped in the hypothermic Celsior solution. […] The hearts were then placed at 4° C. in the same solution for 8 h (the cold ischemia stage), prior to reperfusion (the reanimation stage). After 8 h of cold ischemia, each heart was fastened by its aorta to a cannula for continuous retrograde perfusion using Krebs Henseleit (KH, having the following composition in mM: glucose 11.0; NaCl 118.5: KCl 4.75; MgSO4 1.19, KH2PO4 1.2; NaHCO3 24.0; CaCl2 1.4). A constant pressure of 100 centimeters (cm) of H2O (corresponding to 74 millimeters of mercury (mmHg)) was imposed. […] For each slice, the ratio AN/AR was expressed as a percentage, representing the size of the infarctus. The sum of the infarctuses in all of the sections belonging to the same left ventricle gave the quantity of necrosis for the heart in question. […] At the end of cold ischemia, the hearts were reperfused and the size of infarctus was analyzed histologically after using TTC dye."}, "[3]": {"test_system": "rat primary cardiomyocytes", "assay": "MTT viability of rat primary cardiomyocytes after cold ischemia-reperfusion", "assay_type": "cell-based", "protocol": "(§1) MTT, or […] (Sigma), is a molecule that bonds to mitochondrial dehydrogenases (DH) in the presence of oxidized nicotimamide adenine dinucleotide and nicotimamide adenine dinucleotide phosphate (NAD+ and NADP+) coenzymes to form insoluble formazan crystals of violet color. The resulting violet color is evidence of mitochrondrial function and thus of cell viability. The crystals were dissolved in a permeabilization solution (dimethyl sulfoxide or DMSO, Sigma). This solubilization of formazan also gives rise to cell lysis. The plates were read by spectrophotometry (Multiskan Ex, Thermo, Electron Corporation®) at 550 nanometers (nm).\n(§2) The purpose of this protocol was to determine the potentially protective effect of cyclosporin and/or taxol on cardiomyocytes placed in a cold ischemia situation at 4° C. for 24 hours (h), followed by reperfusion for 24 h, at the end of which the viability test (the MTT test) was performed. A “sham” group was not subjected to the ischemia—reperfusion sequence. At each of the doses tested, four different experiments were performed, and during each experiment, eight different cell wells were tested simultaneously.\n(§3) Statistical analysis consisted in comparing means (Student's test between the group under study and the control group)."}, "H9c2 cardiomyocytes": {"test_system": "H9c2 cardiomyocytes", "assay": "MTT viability of H9c2 cardiomyocytes after cold ischemia-reperfusion", "assay_type": "cell-based, rat", "protocol": "This was a conventional model for culturing rat cardiomyocytes. The H9c2 cardiac cells (ATTC®) came from rat heart ventricles transfected with a pSV3 plasmid containing the SV40 gene. The cells were cultivated in high glucose Dulbecco's modified Eagle's medium (DMEM) (PAA®), with an additional 10% of Mycoplex FBS (PAA®) and 1% penicillin-streptomycin. The medium was changed every two days and re-seeding was performed at 70%-80% confluence.\nas §1, §2, §3\nThe viability of primary cardiomyocytes was evaluated after 24 h of cold ischemia and 24 h of reperfusion.\nAs before, the viability of H9c2 cardiomyocytes was evaluated after 24 h cold ischemia and 24 h reperfusion."}, "[4]": {"details": "1 μM, 5 μM and 10 μM in MM, 24 h cold ischemia + 24 h reperfusion"}, "[5]": {"details": "tested 0.25-10 μM in St. Thomas basal solution, 24 h cold ischemia + 24 h reperfusion"}}}
{"smiles": "CC(=O)O[C@H]1C(=O)[C@@]2(C)[C@H]([C@H](OC(=O)c3ccccc3)[C@]3(O)C[C@H](OC(=O)[C@H](O)[C@@H](NC(=O)c4ccccc4)c4ccccc4)C(C)=C1C3(C)C)[C@]1(OC(C)=O)CO[C@@H]1C[C@@H]2O", "note": "[taxol, paclitaxel]", "values": [{"measurement": "improvement in LVDevP×HR compared with the control group", "setting": "isolated whole rat heart [1]", "value": 25, "unit": "%"}, {"measurement": "size of infarctus (AN/AR), % of the zone at risk", "setting": "isolated whole rat heart [2]", "value": 8.7, "unit": "%"}, {"measurement": "cardioprotective effect when added singly to LYPS, relative to \"MM\" reference group", "setting": "[3]; [4]", "value": "adds nothing in terms of cardioprotective effect"}, {"measurement": "cardiomyocyte viability increased (MTT) relative to control group", "setting": "[3]; agent at optimum concentration around 1 μM in St. Thomas basal solution, 24 h cold ischemia at 4° C. + 24 h reperfusion, p<0.01", "value": "about 25%"}, {"measurement": "optimum concentration for increasing cardiomyocyte viability", "setting": "[3]; [5]", "value": "around 1 μM"}, {"measurement": "cardioprotective effect when added singly to LYPS, relative to \"MM\" reference group", "setting": "H9c2 cardiomyocytes; [4]", "value": "adds nothing in terms of cardioprotective effect"}, {"measurement": "cardiomyocyte viability increased (MTT) relative to control group", "setting": "H9c2 cardiomyocytes; agent at optimum concentration around 1 μM in St. Thomas basal solution, 24 h cold ischemia at 4° C. + 24 h reperfusion, p<0.001", "value": "about 90%"}, {"measurement": "optimum concentration for increasing cardiomyocyte viability", "setting": "H9c2 cardiomyocytes; [5]", "value": "around 1 μM"}]}
